Holding throughout (format): biochemical
For one assay, the target named is cathepsin B (Homo sapiens, UniProt P07858). Nature of the assay: Inhibitory activity assay against cathepsin B (enzyme assay). The note with it: Z-Arg-Arg-AMC 40 μM, enzyme 1 nM, pH 6.0, 90 minutes. As for the experimental part: In order to measure the enzyme activity of cathepsin B, a buffer solution (pH 6.0) consisting of 50 mM MES, 5 mM DTT, 2.5 mM EDTA, 0.005% Polysorbate 20, and 10% DMSO was prepared. The substrate, the test material, and the enzyme were mixed in the buffer solution in a predetermined concentration. The Z-Arg-Arg-AMC substrate was used in the final concentration of 40 μM. The test material was used in the final concentrations of 10.0 μM, 3.33 μM, 1.11 μM, 0.370 μM, 0.123 μM, 0.0412 μM, 0.0137 μM, 0.00457 μM, 0.00152 μM, and 0.000508 μM, respectively. The cathepsin B enzyme was used in the final concentration of 1 nM. The final volume of the enzyme reaction solution was 10 μL. After reacting the mixture of substrate, test material, and enzyme for 90 minutes, the enzyme activity was measured with the EnVision (Perkin Elmer) microplate reader at an absorption wavelength of 340 nm and an emission wavelength of 460 nm. IC50 values were determined using 4-parameter logistic curve fit program of GraphPad Prism.

Another assay has as its target cathepsin S (Homo sapiens, UniProt P25774). Nature of the assay: Inhibitory activity assay against cathepsin S (enzyme assay). The conditions noted are these: Z-Phe-Arg-AMC 70 μM, enzyme 3 nM, pH 6.5, 45 minutes. As for the experimental part:
In order to measure the enzyme activity of cathepsin S, a buffer solution (pH 6.5) consisting of 50 mM MES, 2.5 mM DTT, 1.0 mM EDTA, 0.001% bovine serum albumin (BSA), and 10% DMSO was prepared. The substrate, the test material, and the enzyme were mixed in the buffer solution in a predetermined concentration. The Z-Phe-Arg-AMC substrate was used in the final concentration of 70 μM. The test material was used in the final concentrations of 10.0 μM, 3.33 μM, 1.11 μM, 0.370 μM, 0.123 μM, 0.0412 μM, 0.0137 μM, 0.00457 μM, 0.00152 μM, and 0.000508 μM, respectively. The cathepsin S enzyme was used in the final concentration of 3 nM. The final volume of the enzyme reaction solution was 10 μL.
After reacting the mixture of substrate, test material, and enzyme for 45 minutes, the enzyme activity was measured with the EnVision (Perkin Elmer) microplate reader at an absorption wavelength of 340 nm and an emission wavelength of 460 nm. IC50 values were determined using 4-parameter logistic curve fit program of GraphPad Prism.

The next assay has as its target cathepsin L (Homo sapiens, UniProt P07711). Nature of the assay: Inhibitory activity assay against cathepsin L (enzyme assay). The note with it: Z-Phe-Arg-AMC 2 μM, enzyme 3 nM, pH 5.5, 30 minutes. As for the experimental part: In order to measure the enzyme activity of cathepsin L, a buffer solution (pH 5.5) consisting of 50 mM MES, 2.5 mM DTT, 2.5 mM EDTA, 0.005% Polysorbate 20, and 10% DMSO was prepared. The substrate, the test material, and the enzyme were mixed in the buffer solution in a predetermined concentration. The Z-Phe-Arg-AMC substrate was used in the final concentration of 2 μM. The test material was used in the final concentrations of 10.0 μM, 3.33 μM, 1.11 μM, 0.370 μM, 0.123 μM, 0.0412 μM, 0.0137 μM, 0.00457 μM, 0.00152 μM, and 0.000508 μM, respectively. The cathepsin L enzyme was used in the final concentration of 3 nM. The final volume of the enzyme reaction solution was 10 μL. After reacting the mixture of substrate, test material, and enzyme for 30 minutes, the enzyme activity was measured with the EnVision (Perkin Elmer) microplate reader at an absorption wavelength of 340 nm and an emission wavelength of 460 nm. IC50 values were determined using 4-parameter logistic curve fit program of GraphPad Prism.

The next assay concerns the target T1, cathepsin K (Homo sapiens, UniProt P43235).
T1 sequence (P43235 115-329): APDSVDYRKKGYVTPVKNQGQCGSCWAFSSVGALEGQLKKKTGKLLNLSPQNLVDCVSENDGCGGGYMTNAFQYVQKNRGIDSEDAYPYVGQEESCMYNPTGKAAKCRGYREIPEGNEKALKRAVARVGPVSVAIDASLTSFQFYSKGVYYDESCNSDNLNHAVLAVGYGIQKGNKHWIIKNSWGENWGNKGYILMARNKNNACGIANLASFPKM
Nature of the assay: Inhibitory activity assay against cathepsin K (enzyme assay). The note with it: Z-Phe-Arg-AMC 10 μM, enzyme 1 nM, pH 5.5, 30 minutes. As for the experimental part: In order to measure the enzyme activity of cathepsin K, a buffer solution (pH 5.5) consisting of 50 mM 2-(N-morpholino)ethanesulfonic acid (MES), 2 mM dithiothreitol (DTT), 2.5 mM ethylenediaminetetraacetic acid (EDTA), 0.01% Triton X-100, and 10% dimethyl sulfoxide (DMSO) was prepared. The substrate, the test material, and the enzyme were mixed in the buffer solution in a predetermined concentration. The Z-Phe-Arg-AMC substrate was used in the final concentration of 10 μM. The test material was used in the final concentrations of 10.0 μM, 3.33 μM, 1.11 μM, 0.370 μM, 0.123 μM, 0.0412 μM, 0.0137 μM, 0.00457 μM, 0.00152 μM, and 0.000508 μM, respectively. The cathepsin K enzyme was used in the final concentration of 1 nM. The final volume of the enzyme reaction solution was 10 μL. After reacting the mixture of substrate, test material, and enzyme for 30 minutes, the enzyme activity was measured with the Synergy Neo (Biotek) microplate reader at an absorption wavelength of 355 nm and an emission wavelength of 460 nm. IC50 values were determined using 4-parameter logistic curve fit program of GraphPad Prism.

Each structure is given as a SMILES string. Where only a bound is given, the exact number is not on record here.

What is called IC50 is the point on the concentration scale where inhibition reaches its midpoint.

Sequence of cathepsin S (P25774 115-331, species assumed): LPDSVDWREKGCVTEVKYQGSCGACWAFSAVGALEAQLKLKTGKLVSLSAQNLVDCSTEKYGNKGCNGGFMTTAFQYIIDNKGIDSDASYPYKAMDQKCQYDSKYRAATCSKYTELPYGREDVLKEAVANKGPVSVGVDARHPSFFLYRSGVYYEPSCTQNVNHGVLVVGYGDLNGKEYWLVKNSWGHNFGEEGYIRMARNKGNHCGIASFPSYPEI
Sequence of cathepsin L (P07711 114-333, species assumed): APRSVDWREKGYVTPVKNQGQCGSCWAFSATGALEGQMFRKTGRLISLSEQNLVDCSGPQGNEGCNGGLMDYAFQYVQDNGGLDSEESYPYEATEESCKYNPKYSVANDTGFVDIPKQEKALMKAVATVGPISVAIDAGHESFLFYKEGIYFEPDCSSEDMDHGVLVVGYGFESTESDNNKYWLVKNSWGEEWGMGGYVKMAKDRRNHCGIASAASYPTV

Turning to `N#Cc1nccc(C2(NC(=O)OCc3ccc(Br)cc3)CCCC2)n1` [Example 2, 4-bromobenzyl (1-(2-cyanopyrimidin-4-yl)cyclopentyl)carbamate], the concentration for half-maximal inhibition (IC50) against cathepsin B was > 10000 nM; at cathepsin S it was > 10000 nM; on cathepsin L, > 10000 nM; on cathepsin K, 21.8 nM.

For `N#Cc1nccc(C2(NC(=O)OCc3cccc(Br)c3)CCCC2)n1` [Example 3, 3-bromobenzyl (1-(2-cyanopyrimidin-4-yl)cyclopentyl)carbamate], the IC50 is > 10000 nM against cathepsin B, > 10000 nM on cathepsin S, 6390 nM on cathepsin L and 507 nM at cathepsin K.

For the compound `N#Cc1nccc(C2(NC(=O)OCCc3ccccc3)CCCC2)n1` [Example 4, phenethyl (1-(2-cyanopyrimidin-4-yl)cyclopentyl)carbamate], the IC50 against cathepsin B is > 10000 nM; on cathepsin S it was > 10000 nM; on cathepsin L, > 10000 nM; at cathepsin K, 1150 nM.

For the compound `N#Cc1nccc(C2(NC(=O)OCc3cccc(F)c3)CCCC2)n1` [Example 7, 3-fluorobenzyl (1-(2-cyanopyrimidin-4-yl)cyclopentyl)carbamate], the IC50 on cathepsin B was > 10000 nM; at cathepsin S it was > 10000 nM; on cathepsin L, 3550 nM; on cathepsin K, 56.3 nM.

As for `N#Cc1nccc(C2(NC(=O)OCc3ccccc3)CCCCC2)n1` [Example 10, Benzyl (1-(2-cyanopyrimidin-4-yl)cyclohexyl)carbamate], the IC50 on cathepsin B was > 10000 nM; against cathepsin S, 7010 nM; against cathepsin L, 1180 nM; on cathepsin K it was 5.6 nM.

For `N#Cc1nccc(C2(NC(=O)OCc3ccc(Br)cc3)CCCCC2)n1` [Example 11, 4-bromobenzyl (1-(2-cyanopyrimidin-4-yl)cyclohexyl)carbamate], the IC50 is > 10000 nM against cathepsin B, > 10000 nM on cathepsin S, > 10000 nM at cathepsin L and 18.8 nM on cathepsin K.

Take `N#Cc1nccc(C2(NC(=O)OCc3cccc(Br)c3)CCCCC2)n1` [Example 12, 3-bromobenzyl (1-(2-cyanopyrimidin-4-yl)cyclohexyl)carbamate]: the IC50 against cathepsin B is > 10000 nM; on cathepsin S, > 10000 nM; on cathepsin L it was 6910 nM; on cathepsin K, 168 nM.

As to `Cc1cccc(COC(=O)NC2(c3ccnc(C#N)n3)CCCCC2)c1` [Example 13, 3-methylbenzyl (1-(2-cyanopyrimidin-4-yl)cyclohexyl)carbamate], the IC50 against cathepsin B was > 10000 nM; against cathepsin S, > 10000 nM; at cathepsin L it was 5080 nM; at cathepsin K, 241 nM.

Regarding `N#Cc1nccc(C2(NC(=O)OCc3cccc(C(F)(F)F)c3)CCCCC2)n1` [Example 14, 3-(trifluoromethyl)benzyl (1-(2-cyanopyrimidin-4-yl)cyclohexyl)carbamate], the IC50 is > 10000 nM on cathepsin B, > 10000 nM against cathepsin S, 9230 nM on cathepsin L and 3700 nM on cathepsin K.

Regarding `N#Cc1nccc(C2(NC(=O)OCc3cccc(F)c3)CCCCC2)n1` [Example 15, 3-fluorobenzyl (1-(2-cyanopyrimidin-4-yl)cyclohexyl)carbamate], the IC50 against cathepsin B was > 10000 nM; at cathepsin S it was 8600 nM; at cathepsin L, 1620 nM; at cathepsin K, 45.5 nM.

Regarding `N#Cc1nccc(C2(NC(=O)OCc3cccc(Cl)c3)CCCCC2)n1` [Example 16, 3-chlorobenzyl (1-(2-cyanopyrimidin-4-yl)cyclohexyl)carbamate], the IC50 against cathepsin B is > 10000 nM; on cathepsin S, > 10000 nM; at cathepsin L it was 4610 nM; at cathepsin K it was 277 nM.

Consider `Cc1ccccc1COC(=O)NC1(c2ccnc(C#N)n2)CCCCC1` [Example 17, 2-methylbenzyl (1-(2-cyanopyrimidin-4-yl)cyclohexyl)carbamate], for which the IC50 was > 10000 nM on cathepsin B, > 10000 nM on cathepsin S, 1420 nM against cathepsin L and 58.4 nM at cathepsin K.

As for `N#Cc1nccc(C2(NC(=O)OCc3ccccc3F)CCCCC2)n1` [Example 18, 2-fluorobenzyl (1-(2-cyanopyrimidin-4-yl)cyclohexyl)carbamate], the IC50 at cathepsin B was > 10000 nM; against cathepsin S it was 8320 nM; on cathepsin L, 1740 nM; on cathepsin K, 60.8 nM.

In the case of `N#Cc1nccc(C2(NC(=O)OCc3ccccc3Br)CCCCC2)n1` [Example 19, 2-bromobenzyl (1-(2-cyanopyrimidin-4-yl)cyclohexyl)carbamate], the IC50 is > 10000 nM on cathepsin B, 5850 nM at cathepsin S, 1060 nM against cathepsin L and 18 nM on cathepsin K.

Turning to `N#Cc1nccc(C2(NC(=O)OCc3ccccc3C(F)(F)F)CCCCC2)n1` [Example 20, 2-(trifluoromethyl)benzyl (1-(2-cyanopyrimidin-4-yl)cyclohexyl)carbamate], the IC50 is > 10000 nM against cathepsin B, 9230 nM against cathepsin S, 2010 nM against cathepsin L and 32.9 nM at cathepsin K.

In the case of `COc1ccccc1COC(=O)NC1(c2ccnc(C#N)n2)CCCCC1` [Example 21, 2-methoxybenzyl (1-(2-cyanopyrimidin-4-yl)cyclohexyl)carbamate], the concentration for half-maximal inhibition (IC50) was > 10000 nM at cathepsin B, > 10000 nM against cathepsin S, 2860 nM on cathepsin L and 83.8 nM on cathepsin K.

Consider `Cc1ccc(COC(=O)NC2(c3ccnc(C#N)n3)CCCCC2)cc1` [Example 22, 4-methylbenzyl (1-(2-cyanopyrimidin-4-yl)cyclohexyl)carbamate], for which the concentration for half-maximal inhibition (IC50) at cathepsin B was > 10000 nM; on cathepsin S, > 10000 nM; on cathepsin L, > 10000 nM; on cathepsin K it was 37.2 nM.

Turning to `N#Cc1nccc(C2(NC(=O)OCc3ccc(Cl)cc3)CCCCC2)n1` [Example 23, 4-chlorobenzyl (1-(2-cyanopyrimidin-4-yl)cyclohexyl)carbamate], the IC50 is > 10000 nM against cathepsin B, > 10000 nM at cathepsin S, > 10000 nM against cathepsin L and 19.9 nM at cathepsin K.

`N#Cc1nccc(C2(NC(=O)OCc3ccc(C(F)(F)F)cc3)CCCCC2)n1` [Example 24, 4-(trifluoromethyl)benzyl (1-(2-cyanopyrimidin-4-yl)cyclohexyl)carbamate]: the IC50 on cathepsin B is > 10000 nM; at cathepsin S, > 10000 nM; on cathepsin L, > 10000 nM; at cathepsin K it was 37.9 nM.
